Reference: patent publication US8163766B2, “Beta-secretase modulators and methods of use” (Amgen Inc., priority 2005, dated 2012)

Tested on: Aβ 40 in conditioned media of cells stably expressing Amyloid Precursor Protein (APP)
Test: BACE Cell-Based Assay (Aβ40 in conditioned medium, sandwich ELISA)
Conditions: 24 hours of incubation with the test compounds, Aβ 40 by sandwich ELISA, read-out: IC50 values in the cell-based assay (inhibition of Aβ 40)
Procedure, shortened: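 APP-stably-expressing cells in DMEM/10% FBS exposed 24 h to 10-point compound dilutions starting at 100 or 10 μM, 0.1% DMSO final. Aβ40 in conditioned medium measured by sandwich ELISA (pAb40 capture, biotinylated 6E10 detection, Eu time-resolved fluorescence); IC50 from percent inhibition versus concentration.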

IC50, ≤ 5 µM:
CC(C)(C)Cn1cc(C(=O)N[C@@H](Cc2ccccc2)[C@H](O)CN[C@H]2CC3(CCCC3)Oc3ccc(OC(F)(F)F)cc32)ccc1=O [Example 136, N-((2S,3R)-4-((S)-2,2-spirocyclopentyl-6-(trifluoro-methoxy)chroman-4-ylamino)-3-hydroxy-1-phenylbutan-2-yl)-1-neopentyl-6-oxo-1,6-dihydropyridine-3-carboxamide]
CC(C)c1ccc2c(c1)[C@@H](NC[C@@H](O)[C@H](Cc1ccccc1)NC(=O)c1cc(N3CCCC3=O)c(=O)n(C3CCCC3)c1)CC1(CCCC1)O2 [Example 137, 1-cyclopentyl-N-((2S,3R)-4-((S)-2,2-spirocyclopentyl-6-iso-propylchroman-4-ylamino)-3-hydroxy-1-phenylbutan-2-yl)-6-oxo-5-(2-oxopyrrolidin-1-yl)-1,6-dihydropyridine-3-carboxamide]
CC(C)c1ccc2c(c1)[C@@H](NC[C@@H](O)[C@H](Cc1ccccc1)NC(=O)c1ccc(=O)n(C3CCCC3)c1)CC1(CCCC1)O2 [Example 138, 1-cyclopentyl-N-((2S,3R)-4-((S)-2,2-spirocyclopentyl-6-iso-propylchroman-4-ylamino)-3-hydroxy-1-phenylbutan-2-yl)-6-oxo-1,6-dihydropyridine-3-carb oxamide]
CCc1ccc2c(c1)[C@@H](NC[C@@H](O)[C@H](Cc1ccccc1)NC(=O)c1cc(N3CCCC3=O)c(=O)n(C3CCCC3)c1)CC1(CCCC1C)O2 (stereo partly drawn) [Example 140, 1-cyclopentyl-N-((2S,3R)-4-((S)-6-ethyl-2,2-(-methyl)-spirocyclopentylchroman-4-ylamino)-3-hydroxy-1-phenylbutan-2-yl)-6-oxo-5-(2-oxopyrrolidin-1-yl)-1,6-dihydropyridine-3-carboxamide]
CCc1ccc2c(c1)[C@@H](NC[C@@H](O)[C@H](Cc1ccccc1)NC(=O)c1ccc(=O)n(C3CCCC3)c1)CC1(CCCC1C)O2 (stereo partly drawn) [Example 141, 1-cyclopentyl-N-((2S,3R)-4-((S)-6-ethyl-2,2-(-methyl)-spirocyclopentylchroman-4-ylamino)-3-hydroxy-1-phenylbutan-2-yl)-6-oxo-1,6-dihydropyridine-3-carboxamide]
CCc1ccc2c(c1)[C@@H](NC[C@@H](O)[C@H](Cc1ccccc1)NC(=O)c1nn(-c3ccccc3)c(=O)cc1Cl)CC1(CCCC1)O2 [Example 142, 4-chloro-N-((2S,3R)-4-((S)-6-ethyl-2,2-spirocyclopentylchroman-4-ylamino)-3-hydroxy-1-phenylbutan-2-yl)-6-oxo-1-phenyl-1,6-dihydropyridazine-3-carboxamide]
CC(C)c1ccc2c(c1)[C@@H](NC[C@@H](O)[C@H](Cc1ccccc1)NC(=O)c1nn(-c3ccccc3)c(=O)cc1Cl)CC1(CCCC1)O2 [Example 144, 4-chloro-N-((2S,3R)-3-hydroxy-4-((S)-6-isopropyl-2,2-spirocyclopentylchroman-4-ylamino)-1-phenylbutan-2-yl)-6-oxo-1-phenyl-1,6-dihydropyridazine-3-carb oxamide]
CCc1ccc2c(c1)[C@@H](NC[C@@H](O)[C@H](Cc1ccccc1)NC(=O)c1ccc(=O)n(-c3ccccc3)n1)CC1(CCC1)O2 [Example 146, N-((2S,3R)-4-((S)-6-ethyl-2,2-spirocyclobutylchroman-4-ylamino)-3-hydroxy-1-phenylbutan-2-yl)-6-oxo-1-phenyl-1,6-dihydropyridazine-3-carboxamide]
CCc1ccc2c(c1)[C@@H](NC[C@@H](O)[C@H](Cc1ccccc1)NC(=O)c1nn(-c3ccccc3)c(=O)cc1Cl)CC1(CCC1)O2 [Example 147, 4-chloro-N-((2S,3R)-4-((S)-6-ethyl-2,2-spirocyclobutylchroman-4-ylamino)-3-hydroxy-1-phenylbutan-2-yl)-6-oxo-1-phenyl-1,6-dihydropyridazine-3-carboxamide]
O=C(N[C@@H](Cc1ccccc1)[C@H](O)CN[C@H]1CC2(CCCC2)Oc2ccccc21)c1cc(N2CCCC2=O)c(=O)n(C2CCCC2)c1 [Example 148, 1-cyclopentyl-N-((2S,3R)-4-((S)-2,2-spirocyclopentylchroman-4-ylamino)-3-hydroxy-1-phenylbutan-2-yl)-6-oxo-5-(2-oxopyrrolidin-1-yl)-1,6-dihydropyridine-3-carboxamide]
O=C(N[C@@H](Cc1ccccc1)[C@H](O)CN[C@H]1CC2(CCCC2)Oc2ccccc21)c1ccc(=O)n(C2CCCC2)c1 [Example 149, 1-cyclopentyl-N-((2S,3R)-4-((S)-2,2-spirocyclopentylchroman-4-ylamino)-3-hydroxy-1-phenylbutan-2-yl)-6-oxo-1,6-dihydropyridine-3-carboxamide]
O=C(N[C@@H](Cc1ccccc1)[C@H](O)CN[C@H]1CC2(CCCC2)Oc2ccccc21)c1cc(-c2ccccn2)c(=O)n(C2CCCC2)c1 [Example 150, 1-cyclopentyl-N-((2S,3R)-4-((S)-2,2-spirocyclopentylchroman-4-ylamino)-3-hydroxy-1-phenylbutan-2-yl)-6-oxo-5-(pyridin-2-yl)-1,6-dihydropyridine-3-carboxamide]
CCc1ccc2c(c1)[C@@H](NC[C@@H](O)[C@H](Cc1ccccc1)NC(=O)c1ccc(=O)n(C3CCCC3)n1)CC1(CCC1)O2 [Example 151, 1-cyclopentyl-N-((2S,3R)-4-((S)-6-ethyl-2,2-spirocyclo-butylchroman-4-ylamino)-3-hydroxy-1-phenylbutan-2-yl)-6-oxo-1,6-dihydropyridazine-3-carboxamide]
O=C(N[C@@H](Cc1ccccc1)[C@H](O)CN[C@H]1CC2(CCC2)Oc2ccccc21)c1cc(N2CCCC2=O)c(=O)n(C2CCCC2)c1 [Example 152, 1-cyclopentyl-N-((2S,3R)-4-((S)-2,2-spirocyclobutylchroman-4-ylamino)-3-hydroxy-1-phenylbutan-2-yl)-6-oxo-5-(2-oxopyrrolidin-1-yl)-1,6-dihydropyridine-3-carboxamide]
O=C(N[C@@H](Cc1ccccc1)[C@H](O)CN[C@H]1CC2(CCC2)Oc2ccccc21)c1ccc(=O)n(C2CCCC2)c1 [Example 153, 1-cyclopentyl-N-((2S,3R)-4-((S)-2,2-spirocyclobutylchroman-4-ylamino)-3-hydroxy-1-phenylbutan-2-yl)-6-oxo-1,6-dihydropyridine-3-carboxamide]
CCc1ccc2c(c1)[C@@H](NC[C@@H](O)[C@H](Cc1ccccc1)NC(=O)c1cn(C3CCCC3)c(=O)c3ccccc13)CC1(CCCC1)O2 [Example 158, 2-cyclopentyl-N-((2S,3R)-4-((S)-6-ethyl-2,2-spirocyclopentylchroman-4-ylamino)-3-hydroxy-1-phenylbutan-2-yl)-1-oxo-1,2-dihydroisoquinoline-4-carboxamide]
CCc1ccc2c(c1)[C@@H](NC[C@@H](O)[C@H](Cc1ccccc1)NC(=O)c1cc(-c3ccccc3F)c(=O)n3c1CCC3C)CC1(CCCC1)O2 (some centres unmarked) [Example 159]
CCc1ccc2c(c1)[C@@H](NC[C@@H](O)[C@H](Cc1ccccc1)NC(=O)c1ccc(=O)n(C3CCCCC3)c1)CC1(CCCC1)O2 [Example 160]
CCc1ccc2c(c1)[C@@H](NC[C@@H](O)[C@H](Cc1ccccc1)NC(=O)c1ccc(=O)n(C3CCCC(C)C3)c1)CC1(CCCC1)O2 (some centres unmarked) [Example 161]
CCc1ccc2c(c1)[C@@H](NC[C@@H](O)[C@H](Cc1ccccc1)NC(=O)c1cn(C3CCCC3)c(=O)c3ccccc13)CC1(CCC1)O2 [Example 162]
CCc1ccc2c(c1)[C@@H](NC[C@@H](O)[C@H](Cc1ccccc1)NC(=O)c1ccc(=O)n(C3CCCC3)c1)CC(C)(C)O2 [Example 163]
CCc1ccc2c(c1)C(NC[C@@H](O)[C@H](Cc1ccccc1)NC(=O)c1cc(-c3ccccn3)c(=O)n(C3CCCC3)c1)CC1(CCC1)O2 (stereo partly drawn) [Example 164, 1-Cyclopentyl-N-((2S,3R)-4-((S)-6-ethyl-2,2-spirocyclobutylchroman-4-ylamino)-3-hydroxy-1-phenylbutan-2-yl)-6-oxo-5-(pyridin-2-yl)-1,6-dihydropyridine-3-carboxamide]
CCc1ccc2c(c1)[C@H](NC[C@@H](O)[C@H](Cc1ccccc1)NC(=O)c1cc(-c3ccccn3)c(=O)n(C(C)C)c1)CC1(CCCC1)O2 [Example 165, N-((2S,3R)-4((R)-6-ethyl-2,2-spirocyclopentylchroman-4-ylamino)-3-hydroxy-1-phenylbutan-2-yl)-1-isopropyl-6-oxo-5-(pyridin-2-yl)-1,6-dihydropyridine-3-carboxamide]
O=C(N[C@@H](Cc1ccccc1)[C@H](O)CN[C@H]1CC2(CCC2)Nc2ccc(Br)cc21)c1cc(-c2ccccn2)c(=O)n(C2CCCC2)c1 [Example 471, N-((1S,2R)-3-(((4′S)-6′-bromo-3′,4′-dihydro-1′H-spiro[cyclobutane-1,2′-quinolin]-4′-yl)amino)-2-hydroxy-1-(phenylmethyl)propyl)-1′-cyclopentyl-2′-oxo-1′,2′-dihydro-2,3′-bipyridine-5′-carboxamide]
O=C(N[C@@H](Cc1ccc(F)cc1)[C@H](O)CN[C@H]1CC2(CCC2)Oc2cc(F)c(-n3cccn3)cc21)C1CC1 [Example 472, N-((1S,2R)-1-((4-fluorophenyl)methyl)-3-(((4S)-7-fluoro-6-(1H-pyrazol-1-yl)-3,4-dihydrospiro[chromene-2,1′-cyclobutan]-4-yl)amino)-2-hydroxypropyl)cyclopropanecarboxamide]
O=C(N[C@@H](Cc1ccc(F)cc1)[C@H](O)CN[C@H]1CC2(CCC2)Oc2cc(F)c(-n3cccn3)cc21)C1CCC1 [Example 473, N-((1S,2R)-1-((4-fluorophenyl)methyl)-3-(((4S)-7-fluoro-6-(1H-pyrazol-1-yl)-3,4-dihydrospiro[chromene-2,1′-cyclobutan]-4-yl)amino)-2-hydroxypropyl)cyclobutanecarboxamide]
